Measured values as given in the NIST ThermoML archive (doi:10.1016/j.jct.2018.12.009).
Numbers after ± are expanded uncertainties.

Assay: molar heat capacity at constant volume
Conditions: Mass density=329.2 kg/m3

CC(C)O [propan-2-ol]
molar heat capacity at constant volume [J/K/mol]
Conditions | Fluid (supercritical or subcritical phases) | Liquid
314.29 K | 177.46 ± 8.2 | –
314.52 K | 182.81 ± 8.5 | –
314.8 K | 184.67 ± 8.5 | –
315.05 K | 181.49 ± 8.4 | –
315.3 K | 177.88 ± 8.2 | –
315.42 K | 176.26 ± 8.2 | –
315.61 K | 174.88 ± 8.1 | –
315.8 K | 178.6 ± 8.3 | –
341.91 K | 203.12 ± 9.4 | –
342.08 K | 202.22 ± 9.4 | –
342.2 K | 203.54 ± 9.4 | –
342.32 K | 207.27 ± 9.6 | –
342.49 K | 201.32 ± 9.3 | –
342.67 K | 203.72 ± 9.4 | –
342.79 K | 202.76 ± 9.4 | –
342.91 K | 201.62 ± 9.4 | –
343.03 K | 204.08 ± 9.5 | –
369.05 K | 225.9 ± 10 | –
369.16 K | 220.01 ± 10 | –
369.28 K | 231.31 ± 11 | –
369.39 K | 222.83 ± 10 | –
369.5 K | 225.96 ± 10 | –
369.67 K | 223.55 ± 10 | –
369.84 K | 221.75 ± 10 | –
369.96 K | 221.03 ± 10 | –
370.07 K | 219.47 ± 10 | –
391.32 K | 243.38 ± 11 | –
391.53 K | 248.85 ± 12 | –
391.54 K | 243.44 ± 11 | –
391.65 K | 246.93 ± 11 | –
391.76 K | 235.69 ± 11 | –
391.87 K | 241.16 ± 11 | –
391.98 K | 242.54 ± 11 | –
392.09 K | 244.11 ± 11 | –
392.2 K | 243.2 ± 11 | –
416.55 K | 258.83 ± 12 | –
416.65 K | 260.09 ± 12 | –
416.76 K | 252.52 ± 12 | –
416.86 K | 257.99 ± 12 | –
416.97 K | 255.76 ± 12 | –
417.08 K | 261.47 ± 12 | –
417.18 K | 252.94 ± 12 | –
417.29 K | 253.84 ± 12 | –
417.4 K | 259.73 ± 12 | –
417.5 K | 261.17 ± 12 | –
442.12 K | 262.92 ± 12 | –
442.23 K | 265.86 ± 12 | –
442.33 K | 272.53 ± 13 | –
442.43 K | 265.68 ± 12 | –
442.54 K | 266.76 ± 12 | –
442.64 K | 267.6 ± 12 | –
442.74 K | 270.13 ± 13 | –
442.85 K | 265.86 ± 12 | –
463.48 K | 270.31 ± 13 | –
463.58 K | 271.63 ± 13 | –
463.78 K | 270.31 ± 13 | –
463.83 K | 274.63 ± 13 | –
463.97 K | 279.44 ± 13 | –
464.18 K | 278.72 ± 13 | –
464.27 K | 280.16 ± 13 | –
464.42 K | 278.24 ± 13 | –
464.97 K | 277.34 ± 13 | –
465.27 K | 272.77 ± 13 | –
465.34 K | 278.54 ± 13 | –
482.51 K | 288.1 ± 13 | –
482.6 K | 289.9 ± 13 | –
482.7 K | 288.46 ± 13 | –
482.8 K | 287.73 ± 13 | –
482.89 K | 288.34 ± 13 | –
482.99 K | 292 ± 14 | –
483.09 K | 287.19 ± 13 | –
483.18 K | 291.64 ± 14 | –
500.85 K | 316.94 ± 15 | –
500.95 K | 311.35 ± 14 | –
501.04 K | 310.87 ± 14 | –
501.14 K | 313.94 ± 15 | –
501.23 K | 314.06 ± 15 | –
501.33 K | 310.75 ± 14 | –
501.42 K | 316.76 ± 15 | –
501.53 K | 318.08 ± 15 | –
501.62 K | 320.49 ± 15 | –
501.81 K | 316.64 ± 15 | –
501.9 K | 317.06 ± 15 | –
503.92 K | 322.05 ± 15 | –
504.02 K | 325.72 ± 15 | –
504.11 K | 323.31 ± 15 | –
504.31 K | 318.86 ± 15 | –
504.5 K | 325.72 ± 15 | –
504.59 K | 319.65 ± 15 | –
504.98 K | 328.36 ± 15 | –
505.08 K | 326.92 ± 15 | –
505.27 K | 325.96 ± 15 | –
505.37 K | 325.35 ± 15 | –
506.43 K | 328.06 ± 15 | –
506.53 K | 330.64 ± 15 | –
506.62 K | 335.93 ± 16 | –
506.72 K | 332.69 ± 15 | –
506.82 K | 332.27 ± 15 | –
506.97 K | 330.22 ± 15 | –
507.11 K | 342.54 ± 16 | –
507.2 K | 339.6 ± 16 | –
507.3 K | 339.42 ± 16 | –
507.4 K | 335.93 ± 16 | –
507.5 K | 343.02 ± 16 | –
507.59 K | 338.94 ± 16 | –
507.69 K | 354.86 ± 16 | –
507.79 K | 347.95 ± 16 | –
507.89 K | 352.76 ± 16 | –
508.04 K | 358.17 ± 17 | –
508.16 K | 363.76 ± 17 | 218.14 ± 11
508.18 K | – | 208.53 ± 10
508.28 K | – | 195.91 ± 9.5
508.37 K | – | 187.8 ± 8.9
508.47 K | – | 185.69 ± 8.7
508.57 K | – | 186.9 ± 8.7
508.67 K | – | 192.91 ± 9
508.76 K | – | 186.9 ± 8.7
509.35 K | – | 179.56 ± 8.4
509.45 K | – | 180.16 ± 8.4
509.55 K | – | 178.84 ± 8.3
509.64 K | – | 179.98 ± 8.4
509.79 K | – | 177.46 ± 8.2
509.99 K | – | 177.28 ± 8.2
510.14 K | – | 178.12 ± 8.2
510.23 K | – | 177.94 ± 8.2
510.33 K | – | 176.68 ± 8.2
510.48 K | – | 178.6 ± 8.3
516.9 K | – | 176.74 ± 8.2
516.99 K | – | 176.8 ± 8.2
517.08 K | – | 176.8 ± 8.2
517.27 K | – | 172.17 ± 8
521.87 K | – | 173.13 ± 8.1
521.96 K | – | 168.57 ± 7.8
522.14 K | – | 173.19 ± 8.1
522.33 K | – | 168.63 ± 7.8
522.42 K | – | 171.63 ± 7.9
522.51 K | – | 173.85 ± 8.1
522.6 K | – | 175.18 ± 8.2
530.01 K | – | 168.39 ± 7.8
532.04 K | – | 168.27 ± 7.8
535.11 K | – | 168.33 ± 7.8
540.06 K | – | 168.39 ± 7.8
545.13 K | – | 168.63 ± 7.8
560.04 K | – | 169.77 ± 7.9
570.09 K | – | 173.85 ± 8.1
580.16 K | – | 174.22 ± 8.1
590.07 K | – | 176.38 ± 8.2
600.1 K | – | 178.6 ± 8.3
